In patent US20040191842A1, “Chemopreventive and therapeutic aspects of polyphenolic compositions and assays” (Medical College of Georgia Research Institute, Inc., priority 2002, published 2004):
Entries after “also recorded” stand apart in the source; their conditions may differ.

How the values were obtained:
[1] = system: OSC-4 cells; assay: BrdU incorporation assay, OSC-4 cells; type: cell-based, human; conditions: for DNA synthesis (BrdU assay): 24 hours
Experimental: (§1) DNA synthesis assay. DNA synthesis was analyzed by a BrdU Cell Proliferation Assay Kit (Oncogene Research Products, Boston, Mass.). […] After the treatment, cells were labeled with BrdU for 2 hours at 37° C. and reacted with anti-BrdU antibody. Unbound antibody in each well was removed by rinsing, and horseradish peroxidase-conjugated goat anti-mouse antibody was added to each well. The color reaction was visualized according to the protocol provided by the manufacturer.
as §1, with “cell proliferation assay kit” for “Cell Proliferation Assay Kit”, “anti-mouse IgG” for “anti-mouse”, “reaction to visualize the secondary antibody” for “reaction”, “carried out” for “visualized”

[2] = system: MCF7 cells; assay: Cell growth assay, MCF7 cells; type: cell-based, human; conditions: 50 μM EGCG, 96 hours
Experimental: Cell growth assay. MCF7 cells were seeded (5×10^4) in 25 cm^2 tissue culture flask for 24 hours prior to EGCG or GTPPs incubation. Cells from each flask were trypsinized and counted at each time point on a hemacytometer.

[3] = system: MCF7 (C) cells; assay: Morphological analysis, MCF7(C) cells; type: cell-based, human; conditions: EGCG, 48 hours
Excerpt: Cell lines and cell culture. The normal human keratinocytes (NHEK CC-2507) were purchased from Cambrex (East Rutherford, N.J.) and maintained in KGM-2 medium (Cambrex). The OSC2 cell line was previously described (Osaki et al., Eur J Cancer B Oral Oncol 1994; 30 B:296-301). The breast carcinoma MCF7 cell line was purchased from American Type Culture Collection. The MCF7(C) caspase+cell line “7-3-28 ” was established and tested as previously described (Janicke et al., J Biol Chem 1998; 273:9357-60, Blanc et al., Cancer Res 2000; 60:4386-90). These tumor cells were maintained in 45% Dulbecco's Modified Eagle's Medium (DMEM), 45% Ham's F12 medium and 10% fetal calf serum, 100 I.U/ml penicillin, 100 μg/ml streptomycin and 5 μg/ml hydrocortisone. All cell cultures were maintained in a 37° C. incubator with 5% CO2. Light microscopic photographs were taken with a SPOT RT digital camera system (Diagnostic Instruments) linked to a Nikon Phase Contrast-2 microscope at an original magnification of 200×.

[4] = system: p21; assay: Immunoblot of p21 protein in NHEK; type: cell-based, human; conditions: EGCG 100 μM or higher, beyond 24 hours
Experimental: To identify additional factors those suppress EGCG -induced apoptosis and facilitate cell differentiation in NHEK, exponentially growing NHEK (Cambrex, Baltimore, Md.) were exposed to 100 μM EGCG for 0, 2, 6 and 24 hours, prior to total RNA isolation using the Qiagen RNeasy mini kit (Valencia, Calif.), which was followed by RT-PCR labeling and hybridization with the Human Apoptosis Macroarray membrane (Sigma-Genosys, The Woodlands, Tex.). Total cell lysates also were collected following a variety of EGCG treatments. The protein levels for caspase 14 and p21 were determined by immuno-blotting using antibodies specific for caspase 14 and p21 (Santa Cruz Biotechnology, Santa Cruz, Calif.).

[5] = system: NS-SV-AC cells; assay: Mitochondrial SDH activity in immortalized salivary glandular cells; type: cell-based, human; conditions: NS-SV-AC and two other immortalized salivary glandular cell lines
Experimental: MTT [3-(4,5-dimethylthiazol-2-yl)-2,5-diphenyl tetrazolium bromide] assay. […] Cells (1.5×10^4 cells/well) were seeded in a 96-well microplate and treated with the indicated doses of EGCG for 24 hours. After the treatment, the cells in each well were washed with 200 μl of phosphate-buffered saline (PBS), incubated with 100 μl of 2% MTT in a solution of 0.05 M Tris, 0.5 mM MgCl2, 2.5 mM CoCl2, and 0.25 M disodiumn succinate as substrate (Sigma) at 37° C. for 30 minutes. Cells were fixed in situ by the addition of 100 μl of 4% formalin in 0.2 M Tris (pH 7.7), and after a 5 minute incubation at room temperature liquid was removed and the wells were allowed to dry. Each well was rinsed with 200 μl water and cells were solubilized by the addition of 100 μl of 6.35% 0.1 N NaOH in DMSO. The colored formazan product was measured by a Thermo MAX micro plate reader (Molecular Devices Corp., Sunnyvale, Calif.) at a wavelength of 562 nm. Experiments were repeated three times with triplicate samples for each experiment.

[6] = daily topical 30 mg/ml EGCG for 30 days; cited from earlier work
[7] = system: normal human primary epidermal keratinocytes; assay: BrdU incorporation assay, exponentially growing keratinocytes; type: cell-based; conditions: increasing EGCG or 0.2 mg/ml GTP
Excerpt: Analysis of DNA synthesis using the BrdU incorporation method. The BrdU cell proliferation kit was purchased from Oncogene Research Products (Boston, Mass.). […] Experiments were repeated three times in triplicate for each experiment.

[8] = system: p57; assay: Western blot of p57 in mammary epithelial cells; type: cell-based, human; conditions: EGCG 15 to 200 μM, 24 h
Experimental: Western blot analysis. The keratinocytes and the mammary epithelial cells were placed in KGM-2 and MEGM, respectively, overnight prior to treatment. Cells were lysed, after 24-hour treatment, in RIPA buffer (1% NP-40, 1% sodium deoxycholate, 0.1% SDS, 0.15 M NaCl, 0.01 M sodium phosphate, pH 7.2, and 1% Trasylol) containing proteinase inhibitors (1 mM PMSF, 1 μg/ml each of aprotinin, leupeptin, and pepstatin). The concentration of protein in each sample was determined using the BioRad DC Protein Assay and spectrophotometry. 50 μg of protein from each sample and a BioRad molecular weight standard marker were run on a 10% SDS-PAGE, followed by transfer to nitrocellulose membranes. Nonspecific binding to the membranes was blocked with 10% nonfat milk. Primary polyclonal (rabbit) antibodies and a horseradish peroxidase-conjugated goat anti-rabbit secondary antibody were used in conjunction with the ECL Chemiluminescence Kit (Amersham Pharmacia Biotech, New Jersey) and membranes were exposed to radiographic films for detection. Western blots were digitized for comparison of the intensity for each band using the ImageTool image analysis software program (University of Texas Health Science Center, San Antonio, Tex.). The integrated density of each band was measured using identical 1480 pixel areas of each Apfa-1 or Actin band at a scale of densities from 0 to 255. […]

[9] = system: NS-SV-AC cells; assay: Intracellular ROS levels (DFDA assay), NS-SV-AC cells; type: cell-based, human; conditions: EGCG 15-200 μM, 60 minutes
Experimental: Measurement of intracellular ROS levels. The ROS assay measures the accumulation of intracellular ROS levels. The non-fluorescent dye DFDA passively diffuses into cells, where the acetates are cleaved by intracellular esterases. […] Thus, values of the fluorescence in the cell cultures are constantly rising in this assay. […] The intracellular ROS levels were measured by using a fluorescence plate reader (BIO-TEK FL600, Bio-Tek Instruments, Inc., Winooski, Vt.), at an excitation wavelength of 485 nm and an emission wavelength of 530 nm.

[10] = system: OSC2 cells; assay: Cell invasion/migration assay (Transwell), OSC2 cells; type: cell-based, human; conditions: 50 μM EGCG
Experimental: Cell invasion/migration assay. The invasion/migration assays were conducted using a Transwell apparatus (Costar) with 6.5 mm diameter wells and membranes of 8 μm pore size. The invasiveness at each time point was tested in DMEM/F12 medium immediately following the cell growth assay, by seeding 10^5 cells in each transwell. Cells migrated across the transwell membrane were counted as per microscopic field.

For O=C(O[C@@H]1Cc2c(O)cc(O)cc2O[C@@H]1c1cc(O)c(O)c(O)c1)c1cc(O)c(O)c(O)c1 [EGCG, (−)-epigallocatechin-3-gallate], the “DNA synthesis (BrdU assay)” value ([1]; 50 μM EGCG) was “did not show significant changes”, the “BrdU incorporation, of control levels” value ([1]; 200 μM EGCG) was “approximately 75%” and the “reduction of BrdU incorporation” value ([1]; 200 μM EGCG, 24-hour period) was “approximately 25%”. The “DNA synthesis (BrdU assay)” value ([1]; 200 μM EGCG) was “significantly reduced SDH activity and DNA synthesis”, the “cell number compared to untreated cultures” value [2] was “only an insignificant decrease in cell number” and the morphology [3] was “significantly reduced the cell number and produced cell blebbing”. For the same compound, the “p21 protein level, of controls” value [4] was “below 50%”, the “tolerance, mitochondrial SDH activity” value [5] was “tolerant to high concentrations of EGCG” and the dermal toxicity [6] was “failed to induce dermal toxicity”. The BrdU incorporation [7] was “slight increase of BrdU incorporation”, the p57 levels [8] was “no significant changes” and the “intracellular ROS levels” value [9] was “inhibit ROS production at background levels; also recorded: reduced the ROS to background levels”. The “cells invading the membrane, of control” value ([10]; 24 hours) was “about 30%” and the “cells invading the membrane, of control” value ([10]; 96 hours) was 20%.
